Laboratory results: US20250122397A1, “FOOD SAFE AQUEOUS INKJET COMPOSITIONS” (Canon Production Printing Holding B.V., priority 2023, published 2025)

Assay: Viscosity, Haake Rheostress RS 600 rheometer, flat plate geometry
Format: physicochemical
Settings: 1.5 mol/kg aqueous Mg-salt solution, 25° C.
Experimental: The viscosity is measured using a Haake Rheometer, type Haake Rheostress RS 600, with a flat plate geometry at a temperature of 25° C. unless otherwise indicated. The viscosity is measured at shear rates (i) of between in the range of between 10 s^−1 and 1000 s^−1, unless otherwise indicated.

In order of rising Viscosity:
1. O=S(=O)([O-])[O-].[Mg+2] [compound 1, Mg-sulfate, reference compound]  3.2 mPas
2. O=[N+]([O-])[O-].O=[N+]([O-])[O-].[Mg+2] [compound 2, Mg-nitrate, reference compound]  4.6 mPas
3. O=C([O-])CCC(=O)[O-].[Mg+2] [compound 10, Mg-succinate]  5.0 mPas
4. C=C(CC(=O)[O-])C(=O)[O-].[Mg+2] [compound 8, Mg-itaconate]  5.5 mPas
5. O=C([O-])CCCCC(=O)[O-].[Mg+2] [compound 15, Mg-adipate]  8.8 mPas
6. CC(=O)CCC(=O)[O-].CC(=O)CCC(=O)[O-].[Mg+2] [compound 14, Mg-levulinate]  10.3 mPas

Same assay, conditions: jettable range typically between 2 and 8 mPas; 1.5 mol/kg solution

In the case of `CC(=O)CCC(=O)[O-].CC(=O)CCC(=O)[O-].[Mg+2]` [compound 14, Mg-levulinate], the “viscosity relative to the jettable range” value is reported as “outside the jettable range”.
